Data reported in patent US6613718B2, “Aryl ether derivatives and processes for their preparation and herbicidal and desiccant compositions containing them” (Ishihara Sangyo Kaisha, Ltd., priority 2001, dated 2003).

Tests used:
Format in all cases: in vivo
[1] = system: velvetleaf (Abutilon theophrasti, ABUTH); assay: Pre-emerge greenhouse herbicide activity screening, phytotoxicity rating; details: 14 days after application
Method in brief: (§1)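 Compounds in acetone track-sprayed at 15–1000 g ai/ha, 187 l/ha, onto sandy loam pots sown one day before (pre-emerge) or on 2-3 leaf plants (post-emerge, plus 0.25% v/v non-ionic surfactant). Phytotoxicity rated at 14 days, 0 (no damage) to 100 (all plants dead).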

[2] = system: sicklepod (Cassia obtusifolia, CASOB); assay: as above; details: 14 days after application
Method in brief: as §1

[3] = system: green foxtail (Setaria viridis, SETVI); assay: as above; details: 14 days after application
Method in brief: as §1

[4] = system: ivyleaf morningglory (Ipomoea hederacea, IPOHE); assay: as above; details: 14 days after application
Method in brief: as §1

[5] = system: common ragweed (Ambrosia artemisiifolia L., AMBEL); assay: as above; details: 14 days after application
Method in brief: as §1

[6] = system: redroot pigweed (Amaranthus retroflexus, AMARE); assay: as above; details: 14 days after application
Method in brief: as §1

[7] = system: lambsquarters (Chenopodium album, CHEAL); assay: as above; details: 14 days after application
Method in brief: as §1

[8] = system: barnyardgrass (Echinochloa crus-galli, ECHCG); assay: as above; details: 14 days after application
Method in brief: as §1

[9] = system: large crabgrass (Digitaria sanguinalis, DIGSA); assay: as above; details: 14 days after application
Method in brief: as §1

[10] = system: johnsongrass (Sorghum halepense, SORHA); assay: as above; details: 14 days after application
Method in brief: as §1

[11] = system: velvetleaf (Abutilon theophrasti, ABUTH); assay: Post-emerge greenhouse herbicide activity screening, phytotoxicity rating; details: 14 days after application
Method in brief: as §1

[12] = system: sicklepod (Cassia obtusifolia, CASOB); assay: as above
Method in brief: as §1

[13] = system: green foxtail (Setaria viridis, SETVI); assay: as above
Method in brief: as §1

[14] = system: ivyleaf morningglory (Ipomoea hederacea, IPOHE); assay: as above; details: 14 days after application
Method in brief: as §1

[15] = system: common ragweed (Ambrosia artemisiifolia L., AMBEL); assay: as above
Method in brief: as §1

[16] = system: redroot pigweed (Amaranthus retroflexus, AMARE); assay: as above
Method in brief: as §1

[17] = system: lambsquarters (Chenopodium album, CHEAL); assay: as above
Method in brief: as §1

[18] = system: barnyardgrass (Echinochloa crus-galli, ECHCG); assay: as above; details: 14 days after application
Method in brief: as §1

[19] = system: large crabgrass (Digitaria sanguinalis, DIGSA); assay: as above; details: 14 days after application
Method in brief: as §1

[20] = system: johnsongrass (Sorghum halepense, SORHA); assay: as above; details: 14 days after application
Method in brief: as §1

[21] = system: upland rice (Oryza sp., var.Tebonnet, RICE); assay: Post-emerge greenhouse screening, crop safety (phytotoxicity rating); details: 14 days after application
Method in brief: as §1

[22] = system: soybean (Glycine max L., var. Pella 86, SOY); assay: as above; details: 14 days after application
Method in brief: as §1

[23] = system: field corn (Zea mays L., var. Dekalb 535, CORN); assay: Post-emerge greenhouse screening, crop safety / corn selectivity (phytotoxicity rating); details: for CORN crop damage, phytotoxicity rating (0-100 scale): 14 days after application
Method in brief: as §1

[24] = system: upland rice (Oryza sp., var.Tebonnet, RICE); assay: Pre-emerge greenhouse screening, crop safety (phytotoxicity rating); details: 14 days after application
Method in brief: as §1

[25] = system: soybean (Glycine max L., var. Pella 86, SOY); assay: as above; details: 14 days after application
Method in brief: as §1

[26] = system: field corn (Zea mays L., var. Dekalb 535, CORN); assay: as above; details: 14 days after application
Method in brief: as §1

[27] = 125 g ai/ha, 14 days after application
[28] = 250 g ai/ha, 14 days after application

Cn1c(=S)n(C)c(=O)n(-c2cc(Oc3ccccc3[N+](=O)[O-])c(Cl)cc2F)c1=O [Compound 2-17]
99: AMARE phytotoxicity rating (0-100 scale) ([6]; 125 g ai/ha)
60: ABUTH phytotoxicity rating (0-100 scale) ([1]; 125 g ai/ha) | DIGSA phytotoxicity rating (0-100 scale) ([9]; 125 g ai/ha) | AMBEL phytotoxicity rating (0-100 scale) [15, 27]
0: CASOB phytotoxicity rating (0-100 scale) ([2]; 125 g ai/ha) | AMBEL phytotoxicity rating (0-100 scale) ([5]; 125 g ai/ha) | AMBEL phytotoxicity rating (0-100 scale) ([5]; 250 g ai/ha) | CASOB phytotoxicity rating (0-100 scale) ([12]; 31.3 g ai/ha) | CASOB phytotoxicity rating (0-100 scale) ([12]; 62.5 g ai/ha) | SETVI phytotoxicity rating (0-100 scale) ([13]; 31.3 g ai/ha) | SETVI phytotoxicity rating (0-100 scale) ([13]; 62.5 g ai/ha) | SETVI phytotoxicity rating (0-100 scale) [13, 27] | SETVI phytotoxicity rating (0-100 scale) [13, 28] | IPOHE phytotoxicity rating (0-100 scale) ([14]; 125 g ai/ha) | IPOHE phytotoxicity rating (0-100 scale) ([14]; 250 g ai/ha) | ECHCG phytotoxicity rating (0-100 scale) ([18]; 125 g ai/ha) | DIGSA phytotoxicity rating (0-100 scale) ([19]; 125 g ai/ha) | SORHA phytotoxicity rating (0-100 scale) ([20]; 125 g ai/ha) | SORHA phytotoxicity rating (0-100 scale) ([20]; 250 g ai/ha) | RICE crop damage, phytotoxicity rating (0-100 scale) ([21]; 125 g ai/ha) | RICE crop damage, phytotoxicity rating (0-100 scale) ([21]; 250 g ai/ha) | SOY crop damage, phytotoxicity rating (0-100 scale) ([22]; 125 g ai/ha) | RICE crop damage, phytotoxicity rating (0-100 scale) ([24]; 125 g ai/ha) | RICE crop damage, phytotoxicity rating (0-100 scale) ([24]; 250 g ai/ha) | SOY crop damage, phytotoxicity rating (0-100 scale) ([25]; 125 g ai/ha) | CORN crop damage, phytotoxicity rating (0-100 scale) ([26]; 125 g ai/ha) | CORN crop damage, phytotoxicity rating (0-100 scale) ([26]; 250 g ai/ha)
100: AMARE phytotoxicity rating (0-100 scale) ([6]; 250 g ai/ha) | CHEAL phytotoxicity rating (0-100 scale) ([7]; 125 g ai/ha) | CHEAL phytotoxicity rating (0-100 scale) ([7]; 250 g ai/ha)
65: CASOB phytotoxicity rating (0-100 scale) [12, 28]
30: CASOB phytotoxicity rating (0-100 scale) ([2]; 250 g ai/ha) | IPOHE phytotoxicity rating (0-100 scale) ([4]; 125 g ai/ha) | ECHCG phytotoxicity rating (0-100 scale) ([8]; 125 g ai/ha) | ECHCG phytotoxicity rating (0-100 scale) ([8]; 250 g ai/ha)
8: CORN crop damage, phytotoxicity rating (0-100 scale) ([23]; 250 g ai/ha)
95: ABUTH phytotoxicity rating (0-100 scale) ([11]; 125 g ai/ha) | CHEAL phytotoxicity rating (0-100 scale) [17, 27] | CHEAL phytotoxicity rating (0-100 scale) [17, 28]
5: CORN crop damage, phytotoxicity rating (0-100 scale) ([23]; 125 g ai/ha)
10: SOY crop damage, phytotoxicity rating (0-100 scale) ([25]; 250 g ai/ha)
90: CHEAL phytotoxicity rating (0-100 scale) ([17]; 31.3 g ai/ha) | CHEAL phytotoxicity rating (0-100 scale) ([17]; 62.5 g ai/ha)
80: DIGSA phytotoxicity rating (0-100 scale) ([9]; 250 g ai/ha) | AMARE phytotoxicity rating (0-100 scale) ([16]; 31.3 g ai/ha) | AMARE phytotoxicity rating (0-100 scale) ([16]; 62.5 g ai/ha) | AMARE phytotoxicity rating (0-100 scale) [16, 27] | AMARE phytotoxicity rating (0-100 scale) [16, 28]
35: DIGSA phytotoxicity rating (0-100 scale) ([19]; 250 g ai/ha)
3: CORN selectivity, phytotoxicity rating (0-100 scale) ([23]; 62.5 g ai/ha)
85: SETVI phytotoxicity rating (0-100 scale) ([3]; 125 g ai/ha)
75: AMBEL phytotoxicity rating (0-100 scale) [15, 28]
25: SORHA phytotoxicity rating (0-100 scale) ([10]; 125 g ai/ha) | CASOB phytotoxicity rating (0-100 scale) [12, 27] | ECHCG phytotoxicity rating (0-100 scale) ([18]; 250 g ai/ha) | SOY crop damage, phytotoxicity rating (0-100 scale) ([22]; 250 g ai/ha)
50: IPOHE phytotoxicity rating (0-100 scale) ([4]; 250 g ai/ha) | SORHA phytotoxicity rating (0-100 scale) ([10]; 250 g ai/ha) | AMBEL phytotoxicity rating (0-100 scale) ([15]; 31.3 g ai/ha) | AMBEL phytotoxicity rating (0-100 scale) ([15]; 62.5 g ai/ha)
70: ABUTH phytotoxicity rating (0-100 scale) ([1]; 250 g ai/ha)
98: SETVI phytotoxicity rating (0-100 scale) ([3]; 250 g ai/ha) | ABUTH phytotoxicity rating (0-100 scale) ([11]; 250 g ai/ha)
